# Assay results taken from patent publication US10695364B2, “Anti-hemorrhaging compositions” (Ariel-University Research and Development Company Ltd., priority 2015, dated 2020).
# Entries after “also recorded” stand apart in the source; their conditions may differ. Counter-ions that a name gives are not always drawn.
# System: blood drawn from mice
# Experiment: Blood coagulation assay (presence or absence of blood clots, observed with CCD camera)
# Method: Rats or mice (2-3 months old) were sacrificed using CO2 and their blood was extracted directly from the heart using 1 ml syringe and a 23-gauge needle. Blood was transferred to two groups of experimental tubes (400 microliters in each): empty tubes, and tubes containing citrate at a final concentration of 0.35% by weight (e.g., 50 μl of a respective 3.2% stock solution of trisodium citrate in water).
# The anti-coagulant activity of the citrate powder was confirmed by recording absence of clot formation during the entire experiment, and thereafter, each of the following components was added to the tubes in both groups, at varying amounts:
# =Coral skeleton particulates prepared from Porites lutea (to achieve a final concentration of 50-200 mg/ml)
# =Coral skeleton particulates prepared from Stylophora subseriata (to achieve a final concentration of 50-200 mg/ml)
# =Geological aragonite (to achieve a final concentration of 50-200 mg/ml)
# =amorphous calcium carbonate (ACC) (1-200 mg, to achieve a final concentration of 2-50 mg/ml)
# =Glass beads (0.1 mm diameter; to achieve a final concentration of 100 mg/ml)
# Coagulation and anti-coagulation activity (presence and absence, respectively, of blood clots) was observed using a CCD camera.
smiles,measurement,setting,value
"O=C(O)CC(O)(CC(=O)O)C(=O)O [citrate, Trisodium citrate]",effect of citrate by itself on clotting,"blood drawn from mice, 0.35% by weight of citrate, no calcium carbonate",blocked clotting; also recorded: anti-coagulation effect
O=C([O-])[O-].[K+].[K+] [potassium carbonate],coagulation time of citrate-containing blood,"final concentration 50 mg/ml, citrate-containing blood, data not shown",40 to 45 min
